Results as given in patent US9988400B2 (Genentech, Inc., priority 2013, dated 2018).

biological target: T1, HEK cells stably transfected with tetracycline inducible hNR1 and hNR2A (Homo sapiens, UniProt Q05586+Q12879); assay: Assay 1: Cell-Based Assay, cytosolic calcium response to positive allosteric modulators (with 30 μM glycine and 300 nM L-glutamate, EC30); details: Table 2; cytosolic calcium response, with 30 μM glycine and 300 nM L-glutamate (EC30); — = no plateau was reached
T1 construct: expressed in transfected cells; host or cells: HEK cells, stably transfected, tetracycline/doxycycline inducible
T1 sequence (Q12879 23-1464, other chains not shown): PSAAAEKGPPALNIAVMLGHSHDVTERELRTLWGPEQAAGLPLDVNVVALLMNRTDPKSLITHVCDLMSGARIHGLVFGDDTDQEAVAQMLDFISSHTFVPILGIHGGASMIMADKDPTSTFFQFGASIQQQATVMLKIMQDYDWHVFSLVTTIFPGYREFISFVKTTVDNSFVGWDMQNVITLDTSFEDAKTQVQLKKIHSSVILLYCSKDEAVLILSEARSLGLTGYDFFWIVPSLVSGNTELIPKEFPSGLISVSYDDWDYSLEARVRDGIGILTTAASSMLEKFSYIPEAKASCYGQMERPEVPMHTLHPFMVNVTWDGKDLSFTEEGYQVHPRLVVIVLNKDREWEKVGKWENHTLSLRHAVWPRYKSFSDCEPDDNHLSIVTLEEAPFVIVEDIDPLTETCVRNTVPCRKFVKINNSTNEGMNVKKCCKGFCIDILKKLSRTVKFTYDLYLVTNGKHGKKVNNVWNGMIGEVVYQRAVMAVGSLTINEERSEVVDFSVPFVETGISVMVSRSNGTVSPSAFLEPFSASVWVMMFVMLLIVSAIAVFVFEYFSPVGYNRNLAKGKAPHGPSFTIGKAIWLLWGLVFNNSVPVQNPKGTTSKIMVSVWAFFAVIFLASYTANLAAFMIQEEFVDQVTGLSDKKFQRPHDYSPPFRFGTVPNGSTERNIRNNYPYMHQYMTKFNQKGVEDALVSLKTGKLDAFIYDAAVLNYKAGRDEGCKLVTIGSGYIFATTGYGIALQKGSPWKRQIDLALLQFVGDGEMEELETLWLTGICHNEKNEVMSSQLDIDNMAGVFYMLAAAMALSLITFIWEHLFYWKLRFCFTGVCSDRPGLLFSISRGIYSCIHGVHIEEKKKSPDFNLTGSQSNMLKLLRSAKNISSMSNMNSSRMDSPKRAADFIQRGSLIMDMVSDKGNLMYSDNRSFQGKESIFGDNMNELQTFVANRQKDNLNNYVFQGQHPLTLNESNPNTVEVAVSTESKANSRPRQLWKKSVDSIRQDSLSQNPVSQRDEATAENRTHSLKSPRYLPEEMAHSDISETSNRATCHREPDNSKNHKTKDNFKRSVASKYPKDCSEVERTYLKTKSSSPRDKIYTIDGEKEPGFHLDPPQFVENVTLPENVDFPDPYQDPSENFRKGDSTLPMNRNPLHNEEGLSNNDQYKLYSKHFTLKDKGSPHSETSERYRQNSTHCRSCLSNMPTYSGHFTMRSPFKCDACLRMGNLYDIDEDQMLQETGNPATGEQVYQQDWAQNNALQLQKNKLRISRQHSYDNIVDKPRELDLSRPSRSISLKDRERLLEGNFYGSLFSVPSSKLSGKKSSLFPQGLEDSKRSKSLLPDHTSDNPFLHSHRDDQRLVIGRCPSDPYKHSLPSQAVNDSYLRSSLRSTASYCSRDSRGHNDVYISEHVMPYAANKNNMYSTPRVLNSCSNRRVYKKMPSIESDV
Procedure, shortened: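 Cells induced 24 h with 7.5 μg mL^−1 doxycycline plus 500 μM (+)-ketamine, loaded 60 min at 37 °C with calcium dye in Mg-free HBSS (1.8 mM Ca, probenecid, 10 μM (+)-ketamine, pH 7.15). Peak RFU over 5 min after compound addition, scaled to 100 μM L-glutamate (100%) and 0 μM (0%); four-parameter Hill fit for EC50, max % if no plateau.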

Row | Structure (SMILES) | EC50
1 | CNC(=O)c1c(C)sc2nc(Cc3cc(Cl)ccc3Cl)cc(=O)n12 [Example 21.48, 7-[(2,5-dichlorophenyl)methyl]-N,2-dimethyl-5-oxo-thiazolo[3,2-a]pyrimidine-3-carboxamide] | 8.2 µM
2 | CCNC(=O)c1c(C)sc2nc(Cc3cc(C#N)ccc3CCF)cc(=O)n12 [Example 21.61, 7-(5-cyano-2-(2-fluoroethyl)benzyl)-N-ethyl-2-methyl-5-oxo-5H-thiazolo[3,2-a]pyrimidine-3-carboxamide] | 33.1 µM
3 | CNC(=O)c1c(C)sc2nc(Cc3cccc(CF)c3F)cc(=O)n12 [Example 21.68, 7-[[2-fluoro-3-(fluoromethyl)phenyl]methyl]-N,2-dimethyl-5-oxo-thiazolo[3,2-a]pyrimidine-3-carboxamide] | 4.2 µM

More lines, now with the values ahead:

Row | EC50 | Structure (SMILES)
4 | 18.1 µM | Cc1sc2nc(Cc3cccc(C#N)c3)cc(=O)n2c1C1CC1C#N (stereo not shown) [Example 23.1, 3-((3-(2-cyanocyclopropyl)-2-methyl-5-oxo-5H-thiazolo[3,2-a]pyrimidin-7-yl)methyl)benzonitrile]
5 | 2.6 µM | Cc1sc2nc(Cc3cccc(C#N)c3F)cc(=O)n2c1C1CC1C#N (stereo not shown) [Example 23.2, 3-((3-(2-cyanocyclopropyl)-2-methyl-5-oxo-5H-thiazolo[3,2-a]pyrimidin-7-yl)methyl)-2-fluorobenzonitrile]
6 | 14.8 µM | Cc1sc2nc(Cc3cccc(C#N)n3)cc(=O)n2c1C1CC1C#N (stereo not shown) [Example 23.3, 6-((3-(2-cyanocyclopropyl)-2-methyl-5-oxo-5H-thiazolo[3,2-a]pyrimidin-7-yl)methyl)picolinonitrile]
7 | 15.3 µM | Cc1sc2nc(Cc3cccc(C#N)c3F)cc(=O)n2c1C1CC1 [Example 24.4, 3-((3-cyclopropyl-2-methyl-5-oxo-5H-thiazolo[3,2-a]pyrimidin-7-yl)methyl)-2-fluorobenzonitrile]
8 | 8.9 µM | Cc1sc2nc(Cc3cccc(C#N)c3F)cc(=O)n2c1-c1ccco1 [Example 24.8, 2-fluoro-3-((3-(furan-2-yl)-2-methyl-5-oxo-5H-thiazolo[3,2-a]pyrimidin-7-yl)methyl)benzonitrile]
9 | 18.7 µM | Cc1sc2nc(Cc3cccc(C#N)c3F)cc(=O)n2c1C(=O)NCC(F)(F)F [Example 25.1, 7-(3-cyano-2-fluorobenzyl)-2-methyl-5-oxo-N-(2,2,2-trifluoroethyl)-5H-thiazolo[3,2-a]pyrimidine-3-carboxamide]
10 | 15.2 µM | Cc1sc2nc(Cc3cccc(C(F)(F)F)c3F)cc(=O)n2c1C(=O)NCC#N [Example 25.2, N-(cyanomethyl)-7-(2-fluoro-3-(trifluoromethyl)benzyl)-2-methyl-5-oxo-5H-thiazolo[3,2-a]pyrimidine-3-carboxamide]
11 | 9 µM | Cc1sc2nc(Cc3cccc(C(F)(F)F)c3F)cc(=O)n2c1C#N [Example 26.2, 7-(2-fluoro-3-(trifluoromethyl)benzyl)-2-methyl-5-oxo-5H-thiazolo[3,2-a]pyrimidine-3-carbonitrile]
12 | 30.4 µM | O=c1cc(Cn2nc(C(F)(F)F)cc2C2CC2)nc2sc3c(n12)CCC3 [Example 27.5, 10-{[5-cyclopropyl-3-(trifluoromethyl)-1H-pyrazol-1-yl]methyl}-7-thia-1,9-diazatricyclo[6.4.0.0^{2,6}]dodeca-2(6),8,10-trien-12-one]

same assay, conditions: Table 2; responses scaled relative to 100 μM L-glutamate maximal response (100%) and 0 μM L-glutamate (0%)

Row | Structure (SMILES) | Max %
13 | CCNC(=O)c1c(C)sc2nc(Cc3ccccc3F)cc(=O)n12 [Example 21.44, N-ethyl-7-(2-fluorobenzyl)-2-methyl-5-oxo-5H-thiazolo[3,2-a]pyrimidine-3-carboxamide] | 51.9%
14 | CCNC(=O)c1c(C)sc2nc(Cc3cccc(F)c3F)cc(=O)n12 [Example 21.45, 7-(2,3-difluorobenzyl)-N-ethyl-2-methyl-5-oxo-5H-thiazolo[3,2-a]pyrimidine-3-carboxamide] | 49.1%
15 | CCNC(=O)c1c(C)sc2nc(Cc3cccc(F)c3)cc(=O)n12 [Example 21.46, N-ethyl-7-(3-fluorobenzyl)-2-methyl-5-oxo-5H-thiazolo[3,2-a]pyrimidine-3-carboxamide] | 43.2%
16 | CNC(=O)c1c(C)sc2nc(Cc3ccc(F)c(Cl)c3)cc(=O)n12 [Example 21.47, 7-[(3-chloro-4-fluoro-phenyl)methyl]-N,2-dimethyl-5-oxo-thiazolo[3,2-a]pyrimidine-3-carboxamide] | 103%
17 | CNC(=O)c1c(C)sc2nc(Cc3cc(Cl)ccc3Cl)cc(=O)n12 [Example 21.48, 7-[(2,5-dichlorophenyl)methyl]-N,2-dimethyl-5-oxo-thiazolo[3,2-a]pyrimidine-3-carboxamide] | 100%
18 | CNC(=O)c1c(C)sc2nc(Cc3cccc(OC(F)(F)F)c3)cc(=O)n12 [Example 21.49, N,2-dimethyl-5-oxo-7-[[3-(trifluoromethoxy)phenyl]methyl]thiazolo[3,2-a]pyrimidine-3-carboxamide] | 82.3%
19 | CNC(=O)c1c(C)sc2nc(Cc3cc(C#N)ccc3F)cc(=O)n12 [Example 21.50, 7-[(5-cyano-2-fluoro-phenyl)methyl]-N,2-dimethyl-5-oxo-thiazolo[3,2-a]pyrimidine-3-carboxamide] | 76.1%
20 | CNC(=O)c1c(C)sc2nc(Cc3cc(Cl)cc(C#N)c3)cc(=O)n12 [Example 21.51, 7-[(3-chloro-5-cyano-phenyl)methyl]-N,2-dimethyl-5-oxo-thiazolo[3,2-a]pyrimidine-3-carboxamide] | 75.0%
21 | CNC(=O)c1c(C)sc2nc(Cc3cccc(C4CC4)c3)cc(=O)n12 [Example 21.52, 7-[(3-cyclopropylphenyl)methyl]-N,2-dimethyl-5-oxo-thiazolo[3,2-a]pyrimidine-3-carboxamide] | 72.9%
22 | CNC(=O)c1c(C)sc2nc(Cc3cc(F)ccc3F)cc(=O)n12 [Example 21.53, 7-[(2,5-difluorophenyl)methyl]-N,2-dimethyl-5-oxo-thiazolo[3,2-a]pyrimidine-3-carboxamide] | 49%
23 | CNC(=O)c1c(C)sc2nc(Cc3ccc(F)c(F)c3)cc(=O)n12 [Example 21.54, 7-[(3,4-difluorophenyl)methyl]-N,2-dimethyl-5-oxo-thiazolo[3,2-a]pyrimidine-3-carboxamide] | 46%
24 | CNC(=O)c1c(C)sc2nc(Cc3cccc(F)c3F)cc(=O)n12 [Example 21.55, 7-[(2,3-difluorophenyl)methyl]-N,2-dimethyl-5-oxo-thiazolo[3,2-a]pyrimidine-3-carboxamide] | 43.8%
25 | CNC(=O)c1c(C)sc2nc(Cc3ccc(Cl)cc3F)cc(=O)n12 [Example 21.56, 7-[(4-chloro-2-fluoro-phenyl)methyl]-N,2-dimethyl-5-oxo-thiazolo[3,2-a]pyrimidine-3-carboxamide] | 41%
26 | CNC(=O)c1c(C)sc2nc(Cc3ccc(Cl)cc3Cl)cc(=O)n12 [Example 21.57, 7-[(2,4-dichlorophenyl)methyl]-N,2-dimethyl-5-oxo-thiazolo[3,2-a]pyrimidine-3-carboxamide] | 64.1%
27 | CNC(=O)c1c(C)sc2nc(Cc3ccc(C)c(F)c3)cc(=O)n12 [Example 21.58, 7-[(3-fluoro-4-methyl-phenyl)methyl]-N,2-dimethyl-5-oxo-thiazolo[3,2-a]pyrimidine-3-carboxamide] | 46.1%
28 | CNC(=O)c1c(C)sc2nc(Cc3ccc(F)cc3C(F)(F)F)cc(=O)n12 [Example 21.59, 7-[[4-fluoro-2-(trifluoromethyl)phenyl]methyl]-N,2-dimethyl-5-oxo-thiazolo[3,2-a]pyrimidine-3-carboxamide] | 42.5%
29 | CNC(=O)c1c(C)sc2nc(Cc3ccc(F)cc3C3CC3)cc(=O)n12 [Example 21.60, 7-[(2-cyclopropyl-4-fluoro-phenyl)methyl]-N,2-dimethyl-5-oxo-thiazolo[3,2-a]pyrimidine-3-carboxamide] | 78%
30 | CCNC(=O)c1c(C)sc2nc(Cc3cc(C#N)ccc3CCF)cc(=O)n12 [Example 21.61, 7-(5-cyano-2-(2-fluoroethyl)benzyl)-N-ethyl-2-methyl-5-oxo-5H-thiazolo[3,2-a]pyrimidine-3-carboxamide] | 131%
31 | CCNC(=O)c1c(C)sc2nc(Cc3cccc(C#N)c3Cl)cc(=O)n12 [Example 21.62, 7-(2-chloro-3-cyanobenzyl)-N-ethyl-2-methyl-5-oxo-5H-thiazolo[3,2-a]pyrimidine-3-carboxamide] | 45.6%
32 | CCNC(=O)c1c(C)sc2nc(Cc3c(CC)ccc(F)c3F)cc(=O)n12 [Example 21.63, N-ethyl-7-(6-ethyl-2,3-difluorobenzyl)-2-methyl-5-oxo-5H-thiazolo[3,2-a]pyrimidine-3-carboxamide] | 124%
33 | CCNC(=O)c1c(C)sc2nc(Cc3cc(C#N)ccc3CC)cc(=O)n12 [Example 21.64, 7-(5-cyano-2-ethylbenzyl)-N-ethyl-2-methyl-5-oxo-5H-thiazolo[3,2-a]pyrimidine-3-carboxamide] | 120%
34 | CCNC(=O)c1c(C)sc2nc(Cc3cc(F)ccc3C3CC3)cc(=O)n12 [Example 21.65, 7-(2-cyclopropyl-5-fluorobenzyl)-N-ethyl-2-methyl-5-oxo-5H-thiazolo[3,2-a]pyrimidine-3-carboxamide] | 96.3%
35 | CCNC(=O)c1c(C)sc2nc(Cc3cc(C#N)ccc3C3CC3)cc(=O)n12 [Example 21.66, 7-(5-cyano-2-cyclopropylbenzyl)-N-ethyl-2-methyl-5-oxo-5H-thiazolo[3,2-a]pyrimidine-3-carboxamide] | 92.4%
36 | CCCc1ccc(F)cc1Cc1cc(=O)n2c(C(=O)NCC)c(C)sc2n1 [Example 21.67, N-ethyl-7-(5-fluoro-2-propylbenzyl)-2-methyl-5-oxo-5H-thiazolo[3,2-a]pyrimidine-3-carboxamide] | 75%
37 | CNC(=O)c1c(C)sc2nc(Cc3cccc(CF)c3F)cc(=O)n12 [Example 21.68, 7-[[2-fluoro-3-(fluoromethyl)phenyl]methyl]-N,2-dimethyl-5-oxo-thiazolo[3,2-a]pyrimidine-3-carboxamide] | 111%

The remaining lines, values ahead:

Row | Max % | Structure (SMILES)
38 | 96.9% | CCNC(=O)c1c(C)sc2nc(C(C)c3cccc(C(F)(F)F)c3F)cc(=O)n12 (stereo not shown) [Example 22.1, N-ethyl-7-(1-(2-fluoro-3-(trifluoromethyl)phenyl)ethyl)-2-methyl-5-oxo-5H-thiazolo[3,2-a]pyrimidine-3-carboxamide]
39 | 41.4% | CCN(C)C(=O)c1c(C)sc2nc(Cc3cccc(C(F)(F)F)c3F)cc(=O)n12 [Example 22.2, N-ethyl-7-(2-fluoro-3-(trifluoromethyl)benzyl)-N,2-dimethyl-5-oxo-5H-thiazolo[3,2-a]pyrimidine-3-carboxamide]
40 | 133% | Cc1sc2nc(Cc3cccc(C#N)n3)cc(=O)n2c1C1CC1C#N (stereo not shown) [Example 23.3, 6-((3-(2-cyanocyclopropyl)-2-methyl-5-oxo-5H-thiazolo[3,2-a]pyrimidin-7-yl)methyl)picolinonitrile]
